{"source": "paper PMC7450057", "about": "“Enhancing intracellular accumulation and target engagement of PROTACs with reversible covalent chemistry” (Nature Communications, 2020)", "key": {"MOLM-14 cells": {"system": "MOLM-14 cells", "assay": "Quantification of intracellular drug concentration by LC-MS", "assay_type": "in vitro ADME", "conditions": "for Intracellular concentration: Concentration of compound, AVE / intracellular amount, AVE / intracellular amount / Intracellular concentration: Concentration of compound: 200 nM; for Intracellular concentration: Concentration of compound, AVE / intracellular amount, AVE: average of 3 replicates; for intracellular amount: initial amount 0.4000 nmol; for Intracellular concentration: Concentration of compound: sample volume 400 µL", "procedure": "MOLM-14 cells were seeded at a density of 0.5 × 10^6 per mL in 2 mL medium. […] The samples were immediately centrifuged at 12,000 × g for 15 min at 4 °C, then removing the supernatant. In all, 400 μL of NP-40 lysis buffer was added to the cell pellet and mixed thoroughly. The mixtures were rocked for 1 h at 4 °C and centrifuged at 12,000 × g for 15 min at 4 °C. Then the supernatant was transferred to new EP tubes. In total, 20 µL supernatant was extracted with 180 µL of acetonitrile (containing internal standard: 250 nM of RNC-Ctrl) and centrifuged at the same conditions described above. Take 75 μL of supernatant for liquid chromatography-mass spectrometry analysis.\nThe mass spectrometer was operated in positive SIM ion mode (fragmentor 120 V; cycle time 0.6 s/cycle; Agilent Technologies 6130 Quadrupole LC/MS)."}, "[1]": {"biological_target": "truncated Cereblon protein (Homo sapiens, UniProt Q96SW2)", "sequence (Q96SW2 318-426)": "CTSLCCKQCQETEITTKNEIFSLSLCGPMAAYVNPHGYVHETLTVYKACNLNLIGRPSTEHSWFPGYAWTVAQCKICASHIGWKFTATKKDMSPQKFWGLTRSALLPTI", "assay": "CRBN binding assay (fluorescence quenching)", "conditions": "for Fluorescence Intensity: Supplementary Figure 11, replicates", "procedure": "The Kd values of compounds to CRBN were measured based on fluorescence quenching after compounds binding to CRBN. […] All the compounds were dissolved in DMSO (10 mM) as stock solutions. The final drug concentration is 100 nM. […] Fluorescence intensity values for control wells (assay buffer only) were subtracted from each data point prior to analysis. The Kd was calculated using GraphPad Prism with the following equation curve fit. I=I0−If×Kd/P0+Kd+If"}, "BTK [2]": {"biological_target": "T1, BTK (Homo sapiens, UniProt Q06187)", "T1 sequence (Q06187 whole entry)": "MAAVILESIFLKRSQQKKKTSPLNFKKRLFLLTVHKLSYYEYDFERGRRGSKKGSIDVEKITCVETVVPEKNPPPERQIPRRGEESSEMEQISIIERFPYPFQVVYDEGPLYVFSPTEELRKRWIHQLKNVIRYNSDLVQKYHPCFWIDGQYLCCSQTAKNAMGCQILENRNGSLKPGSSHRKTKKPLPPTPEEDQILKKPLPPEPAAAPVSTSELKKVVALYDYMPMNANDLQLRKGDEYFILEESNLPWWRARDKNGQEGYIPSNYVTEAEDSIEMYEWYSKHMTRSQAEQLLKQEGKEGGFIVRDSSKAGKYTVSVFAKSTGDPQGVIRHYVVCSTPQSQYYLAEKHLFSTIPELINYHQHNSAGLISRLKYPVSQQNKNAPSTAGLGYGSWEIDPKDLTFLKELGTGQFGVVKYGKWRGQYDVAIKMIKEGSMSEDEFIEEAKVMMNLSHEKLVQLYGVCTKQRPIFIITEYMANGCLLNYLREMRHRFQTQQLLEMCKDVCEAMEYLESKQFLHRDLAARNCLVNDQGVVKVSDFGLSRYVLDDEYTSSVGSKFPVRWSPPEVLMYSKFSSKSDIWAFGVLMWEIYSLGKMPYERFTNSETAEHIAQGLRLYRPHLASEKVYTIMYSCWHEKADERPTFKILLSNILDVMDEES", "assay": "In vitro BTK kinase assay (PhosphoSens)", "assay_type": "biochemical", "design": "purchased SignalChem B10-10H-10"}, "BTK [3]": {"biological_target": "T1, BTK", "assay": "BTK degradation in MOLM-14 cells (western blot)", "assay_type": "cell-based", "design": "endogenous in cells; host or cells: MOLM-14", "conditions": "Figure 2b, duplicates"}}, "note": "Where “and” joins values, the source holds several entries; their conditions need not be identical. Equal values may be shown once."}
{"smiles": "CN(CCCNC(=O)CNc1cccc2c1C(=O)N(C1CCC(=O)NC1=O)C2=O)CCCC(=O)N1CCCC(n2nc(-c3ccc(Oc4ccccc4)cc3)c3c(N)ncnc32)C1", "note": "(stereo not shown) [RNC-1]", "values": [{"measurement": "Intracellular concentration: Concentration of compound, AVE", "setting": "MOLM-14 cells; 5 min", "value": 0.0812, "unit": "µM"}, {"measurement": "intracellular amount, AVE", "setting": "MOLM-14 cells; 5 min", "value": 0.0325, "unit": "nmol"}, {"measurement": "intracellular amount", "setting": "MOLM-14 cells; 5 min, single replicates", "value": "0.0283 nmol and 0.0378 nmol and 0.0313 nmol"}, {"measurement": "Intracellular concentration: Concentration of compound", "setting": "MOLM-14 cells; 5 min, single replicates", "value": "0.0707 µM and 0.0946 µM and 0.0782 µM"}, {"measurement": "Intracellular concentration: Concentration of compound, AVE", "setting": "MOLM-14 cells; 15 min", "value": 0.0738, "unit": "µM"}, {"measurement": "intracellular amount, AVE", "setting": "MOLM-14 cells; 15 min", "value": 0.0295, "unit": "nmol"}, {"measurement": "intracellular amount", "setting": "MOLM-14 cells; 15 min, single replicates", "value": "0.0286 nmol and 0.0292 nmol and 0.0308 nmol"}, {"measurement": "Intracellular concentration: Concentration of compound", "setting": "MOLM-14 cells; 15 min, single replicates", "value": "0.0714 µM and 0.0730 µM and 0.0769 µM"}, {"measurement": "Intracellular concentration: Concentration of compound, AVE", "setting": "MOLM-14 cells; 30 min", "value": 0.0681, "unit": "µM"}, {"measurement": "intracellular amount, AVE", "setting": "MOLM-14 cells; 30 min", "value": 0.0272, "unit": "nmol"}, {"measurement": "intracellular amount", "setting": "MOLM-14 cells; 30 min, single replicates", "value": "0.0255 nmol and 0.0275 nmol and 0.0287 nmol"}, {"measurement": "Intracellular concentration: Concentration of compound", "setting": "MOLM-14 cells; 30 min, single replicates", "value": "0.0636 µM and 0.0688 µM and 0.0717 µM"}, {"measurement": "Intracellular concentration: Concentration of compound, AVE", "setting": "MOLM-14 cells; 60 min", "value": 0.0458, "unit": "µM"}, {"measurement": "intracellular amount, AVE", "setting": "MOLM-14 cells; 60 min", "value": 0.0183, "unit": "nmol"}, {"measurement": "intracellular amount", "setting": "MOLM-14 cells; 60 min, single replicates", "value": "0.0183 nmol and 0.0188 nmol and 0.0180 nmol"}, {"measurement": "Intracellular concentration: Concentration of compound", "setting": "MOLM-14 cells; 60 min, single replicates", "value": "0.0457 µM and 0.0469 µM and 0.0450 µM"}, {"measurement": "Intracellular concentration: Concentration of compound, AVE", "setting": "MOLM-14 cells; 90 min", "value": 0.0470, "unit": "µM"}, {"measurement": "intracellular amount, AVE", "setting": "MOLM-14 cells; 90 min", "value": 0.0188, "unit": "nmol"}, {"measurement": "intracellular amount", "setting": "MOLM-14 cells; 90 min, single replicates", "value": "0.0195 nmol and 0.0181 nmol and 0.0187 nmol"}, {"measurement": "Intracellular concentration: Concentration of compound", "setting": "MOLM-14 cells; 90 min, single replicates", "value": "0.0488 µM and 0.0453 µM and 0.0468 µM"}, {"measurement": "Intracellular concentration: Concentration of compound, AVE", "setting": "MOLM-14 cells; 120 min", "value": 0.0445, "unit": "µM"}, {"measurement": "intracellular amount, AVE", "setting": "MOLM-14 cells; 120 min", "value": 0.0178, "unit": "nmol"}, {"measurement": "intracellular amount", "setting": "MOLM-14 cells; 120 min, single replicates", "value": "0.0166 nmol and 0.0169 nmol and 0.0199 nmol"}, {"measurement": "Intracellular concentration: Concentration of compound", "setting": "MOLM-14 cells; 120 min, single replicates", "value": "0.0414 µM and 0.0423 µM and 0.0498 µM"}, {"measurement": "Intracellular concentration: Concentration of compound, AVE", "setting": "MOLM-14 cells; 240 min", "value": 0.0399, "unit": "µM"}, {"measurement": "intracellular amount, AVE", "setting": "MOLM-14 cells; 240 min", "value": 0.0160, "unit": "nmol"}, {"measurement": "intracellular amount", "setting": "MOLM-14 cells; 240 min, single replicates", "value": "0.0161 nmol and 0.0163 nmol and 0.0155 nmol"}, {"measurement": "Intracellular concentration: Concentration of compound", "setting": "MOLM-14 cells; 240 min, single replicates", "value": "0.0402 µM and 0.0408 µM and 0.0387 µM"}, {"measurement": "Cellular concentration", "setting": "MOLM-14 cells; 5 min, Mean", "value": 0.0325, "unit": "nmol/million cells"}, {"measurement": "Cellular concentration", "setting": "MOLM-14 cells; 5 min, single replicates, MOLM-14, 200 nM", "value": "0.0313 nmol/million cells and 0.0283 nmol/million cells and 0.0378 nmol/million cells"}, {"measurement": "Cellular concentration", "setting": "MOLM-14 cells; 15 min, Mean", "value": 0.0295, "unit": "nmol/million cells"}, {"measurement": "Cellular concentration", "setting": "MOLM-14 cells; 15 min, single replicates, MOLM-14, 200 nM", "value": "0.0308 nmol/million cells and 0.0286 nmol/million cells and 0.0292 nmol/million cells"}, {"measurement": "Cellular concentration", "setting": "MOLM-14 cells; 30 min, Mean", "value": 0.0272, "unit": "nmol/million cells"}, {"measurement": "Cellular concentration", "setting": "MOLM-14 cells; 30 min, single replicates, MOLM-14, 200 nM", "value": "0.0287 nmol/million cells and 0.0255 nmol/million cells and 0.0275 nmol/million cells"}, {"measurement": "Cellular concentration", "setting": "MOLM-14 cells; 60 min, Mean", "value": 0.0183, "unit": "nmol/million cells"}, {"measurement": "Cellular concentration", "setting": "MOLM-14 cells; 60 min, single replicates, MOLM-14, 200 nM", "value": "0.0180 nmol/million cells and 0.018 nmol/million cells and 0.0183 nmol/million cells and 0.0188 nmol/million cells"}, {"measurement": "Cellular concentration", "setting": "MOLM-14 cells; 90 min, Mean", "value": 0.0188, "unit": "nmol/million cells"}, {"measurement": "Cellular concentration", "setting": "MOLM-14 cells; 90 min, single replicates, MOLM-14, 200 nM", "value": "0.0187 nmol/million cells and 0.0195 nmol/million cells and 0.0181 nmol/million cells"}, {"measurement": "Cellular concentration", "setting": "MOLM-14 cells; 120 min, Mean", "value": 0.0178, "unit": "nmol/million cells"}, {"measurement": "Cellular concentration", "setting": "MOLM-14 cells; 120 min, single replicates, MOLM-14, 200 nM", "value": "0.0199 nmol/million cells and 0.0166 nmol/million cells and 0.0169 nmol/million cells"}, {"measurement": "Cellular concentration", "setting": "MOLM-14 cells; 240 min, Mean", "value": "0.0160 nmol/million cells and 0.016 nmol/million cells"}, {"measurement": "Cellular concentration", "setting": "MOLM-14 cells; 240 min, single replicates, MOLM-14, 200 nM", "value": "0.0155 nmol/million cells and 0.0161 nmol/million cells and 0.0163 nmol/million cells"}, {"measurement": "Fluorescence Intensity", "setting": "[1]; CRBN 0 μM", "value": "2486.8 and 2886.8 and 2579.8"}, {"measurement": "Fluorescence Intensity", "setting": "[1]; CRBN 0.734375 μM", "value": "2242.8 and 2235.8 and 2132.8"}, {"measurement": "Fluorescence Intensity", "setting": "[1]; CRBN 1.46875 μM", "value": "2244.8 and 1962.8 and 1899.8"}, {"measurement": "Fluorescence Intensity", "setting": "[1]; CRBN 2.9375 μM", "value": "1778.8 and 1742.8 and 1730.8"}, {"measurement": "Fluorescence Intensity", "setting": "[1]; CRBN 5.875 μM", "value": "1389.8 and 1303.8 and 1288.8"}, {"measurement": "Fluorescence Intensity", "setting": "[1]; CRBN 11.75 μM", "value": "1034.8 and 1140.8 and 1274.8"}, {"measurement": "Fluorescence Intensity", "setting": "[1]; CRBN 23.5 μM", "value": "1293.8 and 1294.8 and 1588.8"}, {"measurement": "Kd", "setting": "[1]; truncated Cereblon protein, fluorescence quenching, triplicates, read-out: Kd", "value": 1800, "unit": "nM"}, {"measurement": "IC50", "setting": "BTK [2]; AssayQuant BTK assay kit, 2.5 nM BTK, 1 mM ATP, duplicates, read-out: BTK inhibition IC50", "value": 21.2, "unit": "nM"}, {"measurement": "activity at 2.56 pM", "setting": "BTK [2]; Supplementary Figure 5, drug concentration 2.56 pM, replicates, read-out: Inhibition(%)", "value": 87.5, "unit": "%"}, {"measurement": "activity at 12.8 pM", "setting": "BTK [2]; Supplementary Figure 5, drug concentration 12.8 pM, replicates, read-out: Inhibition(%)", "value": 93, "unit": "%"}, {"measurement": "activity at 64 pM", "setting": "BTK [2]; Supplementary Figure 5, drug concentration 64 pM, replicates, read-out: Inhibition(%)", "value": 88, "unit": "%"}, {"measurement": "activity at 0.00032 µM", "setting": "BTK [2]; Supplementary Figure 5, drug concentration 320 pM, replicates, read-out: Inhibition(%)", "value": 96.2, "unit": "%"}, {"measurement": "activity at 0.0016 µM", "setting": "BTK [2]; Supplementary Figure 5, drug concentration 1600 pM, replicates, read-out: Inhibition(%)", "value": 83.6, "unit": "%"}, {"measurement": "activity at 0.008 µM", "setting": "BTK [2]; Supplementary Figure 5, drug concentration 8000 pM, replicates, read-out: Inhibition(%)", "value": 71.7, "unit": "%"}, {"measurement": "activity at 0.04 µM", "setting": "BTK [2]; Supplementary Figure 5, drug concentration 40000 pM, replicates, read-out: Inhibition(%)", "value": 32.2, "unit": "%"}, {"measurement": "activity at 0.2 µM", "setting": "BTK [2]; Supplementary Figure 5, drug concentration 200000 pM, replicates, read-out: Inhibition(%)", "value": 14, "unit": "%"}, {"measurement": "activity at 1 µM", "setting": "BTK [2]; Supplementary Figure 5, drug concentration 1000000 pM, replicates, read-out: Inhibition(%)", "value": 4.94, "unit": "%"}, {"measurement": "diminished BTK inhibitory activity compared with corresponding warhead control", "setting": "BTK [2]; ratio of IC50 values", "value": "< 3", "unit": "fold"}, {"measurement": "Quantification anti-BTK / anti-β-actin (BTK level vs DMSO)", "setting": "BTK [3]; 8 nM", "value": "97.1575 and 95.3789"}, {"measurement": "Quantification anti-BTK / anti-β-actin (BTK level vs DMSO)", "setting": "BTK [3]; 40 nM", "value": "69.0679 and 73.2452"}, {"measurement": "Quantification anti-BTK / anti-β-actin (BTK level vs DMSO)", "setting": "BTK [3]; 200 nM", "value": "33.5661 and 27.9942"}]}
